What all share (type): biochemical
For one test, the target named is RET-V804M (Homo sapiens, UniProt P07949, V804M). The test is described as follows: RET inhibition experiment (HTRF KinEASE-TK kit), mutant RET-V804M. The conditions noted are these: read-out: The IC50 (nM) for inhibiting V804M. In a few lines:
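Enzyme was pre-incubated with compound at room temperature for 30 min, then substrate and ATP were added for a 40 min reaction. HTRF signal was read after 45 min with TK antibody-cryptate and streptavidin-XL665. IC50 came from a four-parameter fit of percent inhibition against DMSO and no-enzyme controls.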
For orientation: In TR-FRET formats the signal depends on donor and acceptor labels being close together.

In another test the target is RET-M918T (Homo sapiens, UniProt P07949, M918T). The test is described as follows: RET inhibition experiment (HTRF KinEASE-TK kit), mutant RET-M918T. The conditions noted are these: read-out: The IC50 (nM) for inhibiting the enzyme RET-M918T. The method, then: (§1) Experimental method: […] After incubation at room temperature for 40 min, TK antibody-cryptate and streptavidin-XL665 were added, and the test was performed after incubation at room temperature for 45 min. With the solvent group (DMSO) as the negative control and the buffer group (without RET enzyme) as the blank control, the relative inhibitory activity percentages (i.e., inhibition rates) of different concentrations of the compounds were computed as per the following formula: […] The relative inhibitory activity percentages of different concentrations of the compounds were plotted with respect to the compound concentrations, and the curve was fitted according to a four-parameter model to compute the IC50 value as per the following formula: y=min+(max-min)/(1+(x/IC50)^(-Hillslope)) where y is the relative inhibitory activity percentage, max is the maximum value of the fitted curve, min is the minimum value of the fitted curve, x is the logarithmic concentration of the compound, and Hillslope is the slope of the curve.

The target of a further test is T1, RET-CCDC6 (Homo sapiens, UniProt P07949).
T1 construct: CCDC6 fusion partner (Q16204 for human); the other entry of the earlier key: CCDC6 (Q16204, Coiled-coil domain-containing protein 6)
T1 sequence (P07949 with tags, fused parts or gaps): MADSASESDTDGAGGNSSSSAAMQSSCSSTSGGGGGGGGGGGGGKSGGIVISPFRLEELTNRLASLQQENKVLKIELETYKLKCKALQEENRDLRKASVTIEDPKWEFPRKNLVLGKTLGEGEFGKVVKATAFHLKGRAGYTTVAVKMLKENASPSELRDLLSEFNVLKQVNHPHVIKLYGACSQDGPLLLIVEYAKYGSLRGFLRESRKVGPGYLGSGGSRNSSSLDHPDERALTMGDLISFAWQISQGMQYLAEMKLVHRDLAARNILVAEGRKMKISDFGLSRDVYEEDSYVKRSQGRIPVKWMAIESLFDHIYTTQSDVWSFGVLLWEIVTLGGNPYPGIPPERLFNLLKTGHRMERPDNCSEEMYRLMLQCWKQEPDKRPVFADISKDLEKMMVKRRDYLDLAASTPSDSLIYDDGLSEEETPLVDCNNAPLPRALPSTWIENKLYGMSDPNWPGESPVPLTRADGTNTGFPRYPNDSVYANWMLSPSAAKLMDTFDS
In words: RET inhibition experiment (HTRF KinEASE-TK kit), fusion-type RET enzyme. As to conditions: read-out: The IC50 (nM) for inhibiting RET-CCDC6. The method, then: as §1

From US20220144847A1, “HETEROCYCLIC COMPOUND, PHARMACEUTICAL COMPOSITION COMPRISING SAME, PREPARATION METHOD THEREFOR, AND USE THEREOF” (Sichuan Kelun-Biotech Biopharmaceutical Co., Ltd., priority 2019, published 2022) come the findings set out here.

What is called IC50 is the concentration at which inhibition is half-maximal.

Chain of RET-M918T (P07949 29-1114 M918T): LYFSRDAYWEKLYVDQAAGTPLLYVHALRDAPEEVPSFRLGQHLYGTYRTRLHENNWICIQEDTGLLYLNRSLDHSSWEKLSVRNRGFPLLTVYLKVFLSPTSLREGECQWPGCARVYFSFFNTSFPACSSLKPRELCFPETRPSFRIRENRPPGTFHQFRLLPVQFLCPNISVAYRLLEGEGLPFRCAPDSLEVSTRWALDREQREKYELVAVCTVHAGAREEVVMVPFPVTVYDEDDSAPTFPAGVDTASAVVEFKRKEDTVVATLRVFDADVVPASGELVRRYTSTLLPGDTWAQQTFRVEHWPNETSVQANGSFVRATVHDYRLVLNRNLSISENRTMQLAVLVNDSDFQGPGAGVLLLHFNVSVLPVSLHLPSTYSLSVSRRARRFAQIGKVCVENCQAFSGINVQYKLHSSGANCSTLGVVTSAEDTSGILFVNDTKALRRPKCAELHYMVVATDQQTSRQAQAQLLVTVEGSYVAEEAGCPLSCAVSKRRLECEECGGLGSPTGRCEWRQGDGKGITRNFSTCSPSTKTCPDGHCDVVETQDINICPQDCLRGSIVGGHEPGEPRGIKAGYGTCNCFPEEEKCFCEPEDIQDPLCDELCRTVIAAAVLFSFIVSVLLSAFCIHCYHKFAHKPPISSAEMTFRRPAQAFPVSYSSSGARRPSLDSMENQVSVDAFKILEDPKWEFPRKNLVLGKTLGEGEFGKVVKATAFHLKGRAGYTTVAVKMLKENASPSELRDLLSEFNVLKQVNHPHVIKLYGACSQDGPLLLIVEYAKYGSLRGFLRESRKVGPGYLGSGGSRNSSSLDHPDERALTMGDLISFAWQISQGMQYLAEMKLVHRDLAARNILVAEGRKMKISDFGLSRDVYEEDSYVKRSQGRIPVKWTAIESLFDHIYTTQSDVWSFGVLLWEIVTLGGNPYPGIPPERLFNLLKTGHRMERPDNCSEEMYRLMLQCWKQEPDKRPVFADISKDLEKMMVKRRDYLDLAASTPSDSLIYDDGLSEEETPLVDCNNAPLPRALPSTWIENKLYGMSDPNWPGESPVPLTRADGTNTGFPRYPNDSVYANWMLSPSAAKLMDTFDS
Chain of RET-V804M (P07949 29-1114 V804M): as the sequence (P07949 29-1114 M918T) above, with V776M, T890M counted along it

Take `Cc1cc(Nc2cc(C)[nH]n2)nc(-c2ccc(N3CC4CC(C3)N4Cc3ccc(-n4cc(F)cn4)nc3)nc2)n1` [Compound 17, 2-(6-(6-((6-(4-fluoro-1H-pyrazol-1-yl)pyridin-3-yl)methyl)-3,6-diazabicyclo[3.1.1]heptan-3-yl)pyridin-3-yl)-6-methyl-N-(5-methyl-1H-pyrazol-3-yl)pyrimidin-4-amine]: the values for the concentration for half-maximal inhibition (IC50) at RET-V804M, at RET-M918T and at RET-CCDC6 were 1.03 ± 0.47 nM, 1.47 ± 0.29 nM and 2.5 ± 0.55 nM, respectively.
